Data reported in paper PMC10934500, “Exploring the Anti-Diabetic Potential of Quercetagitrin through Dual Inhibition of PTPN6 and PTPN9” (Nutrients, 2024).

Biological target: PTPN6 (Homo sapiens, UniProt P29350)
Test: DiFMUP fluorescence phosphatase assay with recombinant enzyme purified from E. coli
Format: biochemical

Chain of PTPN6 (P29350 whole entry): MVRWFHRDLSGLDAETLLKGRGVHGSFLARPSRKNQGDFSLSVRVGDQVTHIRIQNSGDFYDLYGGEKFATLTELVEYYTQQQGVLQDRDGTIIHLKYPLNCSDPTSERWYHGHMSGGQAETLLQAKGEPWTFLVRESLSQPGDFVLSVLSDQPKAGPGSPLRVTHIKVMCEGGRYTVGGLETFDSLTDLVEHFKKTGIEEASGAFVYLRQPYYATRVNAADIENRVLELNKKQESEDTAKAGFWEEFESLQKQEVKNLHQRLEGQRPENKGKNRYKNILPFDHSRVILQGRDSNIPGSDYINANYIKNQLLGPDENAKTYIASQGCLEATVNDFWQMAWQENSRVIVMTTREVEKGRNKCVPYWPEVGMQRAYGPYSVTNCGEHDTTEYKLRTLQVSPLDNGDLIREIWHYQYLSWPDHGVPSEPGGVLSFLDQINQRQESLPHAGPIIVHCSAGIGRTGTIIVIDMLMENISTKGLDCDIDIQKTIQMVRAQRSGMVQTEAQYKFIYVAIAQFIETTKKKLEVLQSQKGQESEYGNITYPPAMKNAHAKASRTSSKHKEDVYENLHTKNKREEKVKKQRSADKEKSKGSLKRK

O=c1c(O)c(-c2ccc(O)c(O)c2)oc2cc(O[C@@H]3O[C@H](CO)[C@@H](O)[C@H](O)[C@H]3O)c(O)c(O)c12 [QG, quercetagitrin]
IC50: 1000 nM
